In patent publication US20230111310A1, “CARBOXYLIC ACID DERIVATIVE-SUBSTITUTED IMINO ARYL COMPOUND, PREPARATION METHOD THEREFOR, HERBICIDAL COMPOSITION AND USE THEREOF” (Qingdao Kingagroot Chemical Compound Co., Ltd., priority 2020, published 2023):

Assays:
Test in all cases: Weeding effect in post-emergence stage
Format in all cases: in vivo
Echinochloa crusgalli = details: for Weeding effect in post-emergence stage, Echinochloa crusgalli: level of fresh weight growth control rate; for Weeding effect in post-emergence stage, Echinochloa crusgalli (level): fresh weight control rate level
Procedure, shortened: (§1)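 Compound, dissolved in acetone and diluted in water with Tween 80 plus methyl oleate EC (1.5 liter/ha), is sprayed onto 2-3 leaf potted plants. Rates span 7.5–500 g/ha. After 3 weeks of greenhouse culture, weeding effect is counted as the mean of triplicates.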

Abutilon theophrasti = details: for Weeding effect in post-emergence stage, Abutilon theophrasti: level of fresh weight growth control rate; for Weeding effect in post-emergence stage, Abutilon theophrasti (level): fresh weight control rate level
Procedure, shortened: as §1

Setaria viridis = details: for Weeding effect in post-emergence stage, Setaria viridis: level of fresh weight growth control rate; for Weeding effect in post-emergence stage, Setaria viridis (level): fresh weight control rate level
Procedure, shortened: as §1

Digitaria sanguinalis = details: for Weeding effect in post-emergence stage, Digitaria sanguinalis: level of fresh weight growth control rate; for Weeding effect in post-emergence stage, Digitaria sanguinalis (level): fresh weight control rate level
Procedure, shortened: as §1

Eleusine indica = details: for Weeding effect in post-emergence stage, Eleusine indica: level of fresh weight growth control rate; for Weeding effect in post-emergence stage, Eleusine indica (level): fresh weight control rate level
Procedure, shortened: as §1

Alopecurus japonicus = details: for Weeding effect in post-emergence stage, Alopecurus japonicus: level of fresh weight growth control rate; for Weeding effect in post-emergence stage, Alopecurus japonicus (level): fresh weight control rate level
Procedure, shortened: as §1

CCO/C(C)=N/OC(=O)C(C)O/N=C/c1cc(-n2c(=O)cc(C(F)(F)F)n(C)c2=O)c(F)cc1Cl (stereo not drawn) [Compound 252]
Weeding effect in post-emergence stage, Echinochloa crusgalli (Echinochloa crusgalli; Dose 15 g/ha): 5 (Level 5: growth control rate is above 85%) | Weeding effect in post-emergence stage, Abutilon theophrasti (Abutilon theophrasti; Dose 15 g/ha): 5 (Level 5: growth control rate is above 85%) | Weeding effect in post-emergence stage, Setaria viridis (Setaria viridis; Dose 15 g/ha): 5 (Level 5: growth control rate is above 85%) | Weeding effect in post-emergence stage, Digitaria sanguinalis (Digitaria sanguinalis; Dose 15 g/ha): 5 (Level 5: growth control rate is above 85%) | Weeding effect in post-emergence stage, Eleusine indica (Eleusine indica; Dose 15 g/ha): 5 (Level 5: growth control rate is above 85%) | Weeding effect in post-emergence stage, Alopecurus japonicus (Alopecurus japonicus; Dose 15 g/ha): 5 (Level 5: growth control rate is above 85%)

C[C@@H](O/N=C/c1cc(-n2c(=O)cc(C(F)(F)F)n(C)c2=O)c(F)cc1Cl)C(=O)SCc1ccccc1 [409(R)]
Weeding effect in post-emergence stage, Echinochloa crusgalli (level) (Echinochloa crusgalli; Dose 30 g/ha): 5 (Level 5: growth control rate is above 85%) | Weeding effect in post-emergence stage, Abutilon theophrasti (level) (Abutilon theophrasti; Dose 30 g/ha): 5 (Level 5: growth control rate is above 85%) | Weeding effect in post-emergence stage, Setaria viridis (level) (Setaria viridis; Dose 30 g/ha): 5 (Level 5: growth control rate is above 85%) | Weeding effect in post-emergence stage, Digitaria sanguinalis (level) (Digitaria sanguinalis; Dose 30 g/ha): 5 (Level 5: growth control rate is above 85%) | Weeding effect in post-emergence stage, Eleusine indica (level) (Eleusine indica; Dose 30 g/ha): 5 (Level 5: growth control rate is above 85%) | Weeding effect in post-emergence stage, Alopecurus japonicus (level) (Alopecurus japonicus; Dose 30 g/ha): 5 (Level 5: growth control rate is above 85%)

CCOC(=O)C(C)O/N=C/c1cc(-n2c(=O)n(C)c(=S)n(C)c2=O)c(F)cc1C(F)(F)F (racemic) [Compound 86]
Weeding effect in post-emergence stage, Echinochloa crusgalli (Echinochloa crusgalli; Dose 15 g/ha): 4 (Level 4: growth control rate is greater than or equal to 60% and less than 85%) | Weeding effect in post-emergence stage, Abutilon theophrasti (Abutilon theophrasti; Dose 15 g/ha): 5 (Level 5: growth control rate is above 85%) | Weeding effect in post-emergence stage, Setaria viridis (Setaria viridis; Dose 15 g/ha): 4 (Level 4: growth control rate is greater than or equal to 60% and less than 85%) | Weeding effect in post-emergence stage, Digitaria sanguinalis (Digitaria sanguinalis; Dose 15 g/ha): 3 (Level 3: growth control rate is greater than or equal to 40% and less than 60%) | Weeding effect in post-emergence stage, Eleusine indica (Eleusine indica; Dose 15 g/ha): 5 (Level 5: growth control rate is above 85%) | Weeding effect in post-emergence stage, Alopecurus japonicus (Alopecurus japonicus; Dose 15 g/ha): 3 (Level 3: growth control rate is greater than or equal to 40% and less than 60%)

COC(=O)C(OC)OC(=O)[C@@H](C)O/N=C/c1cc(-n2c(=O)cc(C(F)(F)F)n(C)c2=O)c(F)cc1Cl (stereo partly drawn) [245(R)]
Weeding effect in post-emergence stage, Echinochloa crusgalli (Echinochloa crusgalli; Dose 30 g/ha): 5 (Level 5: growth control rate is above 85%) | Weeding effect in post-emergence stage, Abutilon theophrasti (Abutilon theophrasti; Dose 30 g/ha): 5 (Level 5: growth control rate is above 85%) | Weeding effect in post-emergence stage, Setaria viridis (Setaria viridis; Dose 30 g/ha): 5 (Level 5: growth control rate is above 85%) | Weeding effect in post-emergence stage, Digitaria sanguinalis (Digitaria sanguinalis; Dose 30 g/ha): 5 (Level 5: growth control rate is above 85%) | Weeding effect in post-emergence stage, Eleusine indica (Eleusine indica; Dose 30 g/ha): 5 (Level 5: growth control rate is above 85%) | Weeding effect in post-emergence stage, Alopecurus japonicus (Alopecurus japonicus; Dose 30 g/ha): 5 (Level 5: growth control rate is above 85%)

COC(=O)C(O/N=C/c1cc(-n2c(=O)cc(C(F)(F)F)n(C)c2=O)c(F)cc1Cl)C1CC1 (racemic) [Compound 456]
Weeding effect in post-emergence stage, Echinochloa crusgalli (level) (Echinochloa crusgalli; Dose 30 g/ha): 5 (Level 5: growth control rate is above 85%) | Weeding effect in post-emergence stage, Abutilon theophrasti (level) (Abutilon theophrasti; Dose 30 g/ha): 5 (Level 5: growth control rate is above 85%) | Weeding effect in post-emergence stage, Setaria viridis (level) (Setaria viridis; Dose 30 g/ha): 5 (Level 5: growth control rate is above 85%) | Weeding effect in post-emergence stage, Digitaria sanguinalis (level) (Digitaria sanguinalis; Dose 30 g/ha): 5 (Level 5: growth control rate is above 85%) | Weeding effect in post-emergence stage, Eleusine indica (level) (Eleusine indica; Dose 30 g/ha): 5 (Level 5: growth control rate is above 85%) | Weeding effect in post-emergence stage, Alopecurus japonicus (level) (Alopecurus japonicus; Dose 30 g/ha): 5 (Level 5: growth control rate is above 85%)

CC(O/N=C/c1cc(-n2c(=O)cc(C(F)(F)F)n(C)c2=O)c(F)cc1Cl)C(=O)O/N=C/c1ccccc1 (stereo not drawn) [Compound 255]
Weeding effect in post-emergence stage, Echinochloa crusgalli (Echinochloa crusgalli; Dose 30 g/ha): 5 (Level 5: growth control rate is above 85%) | Weeding effect in post-emergence stage, Abutilon theophrasti (Abutilon theophrasti; Dose 30 g/ha): 5 (Level 5: growth control rate is above 85%) | Weeding effect in post-emergence stage, Setaria viridis (Setaria viridis; Dose 30 g/ha): 5 (Level 5: growth control rate is above 85%) | Weeding effect in post-emergence stage, Digitaria sanguinalis (Digitaria sanguinalis; Dose 30 g/ha): 5 (Level 5: growth control rate is above 85%) | Weeding effect in post-emergence stage, Eleusine indica (Eleusine indica; Dose 30 g/ha): 5 (Level 5: growth control rate is above 85%) | Weeding effect in post-emergence stage, Alopecurus japonicus (Alopecurus japonicus; Dose 30 g/ha): 5 (Level 5: growth control rate is above 85%)

CCCCCCCCOC(=O)C(C)O/N=C/c1cc(-n2c(=O)cc(C(F)(F)F)n(C)c2=O)c(F)cc1Cl (racemic) [Compound 206]
Weeding effect in post-emergence stage, Echinochloa crusgalli (Echinochloa crusgalli; Dose 15 g/ha): 5 (Level 5: growth control rate is above 85%) | Weeding effect in post-emergence stage, Abutilon theophrasti (Abutilon theophrasti; Dose 15 g/ha): 5 (Level 5: growth control rate is above 85%) | Weeding effect in post-emergence stage, Setaria viridis (Setaria viridis; Dose 15 g/ha): 5 (Level 5: growth control rate is above 85%) | Weeding effect in post-emergence stage, Digitaria sanguinalis (Digitaria sanguinalis; Dose 15 g/ha): 5 (Level 5: growth control rate is above 85%) | Weeding effect in post-emergence stage, Eleusine indica (Eleusine indica; Dose 15 g/ha): 5 (Level 5: growth control rate is above 85%) | Weeding effect in post-emergence stage, Alopecurus japonicus (Alopecurus japonicus; Dose 15 g/ha): 5 (Level 5: growth control rate is above 85%)

CC(CC#N)OC(=O)[C@@H](C)O/N=C/c1cc(-n2c(=O)cc(C(F)(F)F)n(C)c2=O)c(F)cc1Cl (stereo partly drawn) [444(R)]
Weeding effect in post-emergence stage, Echinochloa crusgalli (level) (Echinochloa crusgalli; Dose 15 g/ha): 5 (Level 5: growth control rate is above 85%) | Weeding effect in post-emergence stage, Abutilon theophrasti (level) (Abutilon theophrasti; Dose 15 g/ha): 5 (Level 5: growth control rate is above 85%) | Weeding effect in post-emergence stage, Setaria viridis (level) (Setaria viridis; Dose 15 g/ha): 5 (Level 5: growth control rate is above 85%) | Weeding effect in post-emergence stage, Digitaria sanguinalis (level) (Digitaria sanguinalis; Dose 15 g/ha): 5 (Level 5: growth control rate is above 85%) | Weeding effect in post-emergence stage, Eleusine indica (level) (Eleusine indica; Dose 15 g/ha): 5 (Level 5: growth control rate is above 85%) | Weeding effect in post-emergence stage, Alopecurus japonicus (level) (Alopecurus japonicus; Dose 15 g/ha): 5 (Level 5: growth control rate is above 85%)

CON(C)C(=O)C(C)O/N=C/c1cc(-n2c(=O)cc(C(F)(F)F)n(C)c2=O)c(F)cc1Cl (stereo not drawn) [Compound 419]
Weeding effect in post-emergence stage, Echinochloa crusgalli (level) (Echinochloa crusgalli; Dose 15 g/ha): 5 (Level 5: growth control rate is above 85%) | Weeding effect in post-emergence stage, Abutilon theophrasti (level) (Abutilon theophrasti; Dose 15 g/ha): 5 (Level 5: growth control rate is above 85%) | Weeding effect in post-emergence stage, Setaria viridis (level) (Setaria viridis; Dose 15 g/ha): 5 (Level 5: growth control rate is above 85%) | Weeding effect in post-emergence stage, Digitaria sanguinalis (level) (Digitaria sanguinalis; Dose 15 g/ha): 5 (Level 5: growth control rate is above 85%) | Weeding effect in post-emergence stage, Eleusine indica (level) (Eleusine indica; Dose 15 g/ha): 5 (Level 5: growth control rate is above 85%) | Weeding effect in post-emergence stage, Alopecurus japonicus (level) (Alopecurus japonicus; Dose 15 g/ha): 5 (Level 5: growth control rate is above 85%)

C[C@@H](O/N=C/c1cc(-n2c(=O)n(C)c(=S)n(C)c2=O)c(F)cc1Cl)C(=O)OCCF [10(R)]
Weeding effect in post-emergence stage, Echinochloa crusgalli (Echinochloa crusgalli; Dose 15 g/ha): 5 (Level 5: growth control rate is above 85%) | Weeding effect in post-emergence stage, Abutilon theophrasti (Abutilon theophrasti; Dose 15 g/ha): 5 (Level 5: growth control rate is above 85%) | Weeding effect in post-emergence stage, Setaria viridis (Setaria viridis; Dose 15 g/ha): 5 (Level 5: growth control rate is above 85%) | Weeding effect in post-emergence stage, Digitaria sanguinalis (Digitaria sanguinalis; Dose 15 g/ha): 5 (Level 5: growth control rate is above 85%) | Weeding effect in post-emergence stage, Eleusine indica (Eleusine indica; Dose 15 g/ha): 5 (Level 5: growth control rate is above 85%) | Weeding effect in post-emergence stage, Alopecurus japonicus (Alopecurus japonicus; Dose 15 g/ha): 5 (Level 5: growth control rate is above 85%)

COC(=O)[C@@H](C)O/N=C/c1cc(-n2c(=O)c(C)c(C(F)(F)F)n(C)c2=O)c(F)cc1Cl [473(R)]
Weeding effect in post-emergence stage, Echinochloa crusgalli (level) (Echinochloa crusgalli; Dose 30 g/ha): 5 (Level 5: growth control rate is above 85%) | Weeding effect in post-emergence stage, Abutilon theophrasti (level) (Abutilon theophrasti; Dose 30 g/ha): 5 (Level 5: growth control rate is above 85%) | Weeding effect in post-emergence stage, Setaria viridis (level) (Setaria viridis; Dose 30 g/ha): 5 (Level 5: growth control rate is above 85%) | Weeding effect in post-emergence stage, Digitaria sanguinalis (level) (Digitaria sanguinalis; Dose 30 g/ha): 5 (Level 5: growth control rate is above 85%) | Weeding effect in post-emergence stage, Eleusine indica (level) (Eleusine indica; Dose 30 g/ha): 5 (Level 5: growth control rate is above 85%) | Weeding effect in post-emergence stage, Alopecurus japonicus (level) (Alopecurus japonicus; Dose 30 g/ha): 5 (Level 5: growth control rate is above 85%)

CC(C)OC(=O)C(C)O/N=C/c1cc(-n2c(=O)n(C)c(=S)n(C)c2=O)c(F)cc1Cl (racemic) [Compound 5]
Weeding effect in post-emergence stage, Echinochloa crusgalli (Echinochloa crusgalli; Dose 15 g/ha): 5 (Level 5: growth control rate is above 85%) | Weeding effect in post-emergence stage, Abutilon theophrasti (Abutilon theophrasti; Dose 15 g/ha): 5 (Level 5: growth control rate is above 85%) | Weeding effect in post-emergence stage, Setaria viridis (Setaria viridis; Dose 15 g/ha): 5 (Level 5: growth control rate is above 85%) | Weeding effect in post-emergence stage, Digitaria sanguinalis (Digitaria sanguinalis; Dose 15 g/ha): 5 (Level 5: growth control rate is above 85%) | Weeding effect in post-emergence stage, Eleusine indica (Eleusine indica; Dose 15 g/ha): 5 (Level 5: growth control rate is above 85%) | Weeding effect in post-emergence stage, Alopecurus japonicus (Alopecurus japonicus; Dose 15 g/ha): 5 (Level 5: growth control rate is above 85%)

CCC(CC)=NOC(=O)[C@@H](C)O/N=C/c1cc(-n2c(=O)cc(C(F)(F)F)n(C)c2=O)c(F)cc1Cl [251(R)]
Weeding effect in post-emergence stage, Echinochloa crusgalli (Echinochloa crusgalli; Dose 15 g/ha): 5 (Level 5: growth control rate is above 85%) | Weeding effect in post-emergence stage, Abutilon theophrasti (Abutilon theophrasti; Dose 15 g/ha): 5 (Level 5: growth control rate is above 85%) | Weeding effect in post-emergence stage, Setaria viridis (Setaria viridis; Dose 15 g/ha): 5 (Level 5: growth control rate is above 85%) | Weeding effect in post-emergence stage, Digitaria sanguinalis (Digitaria sanguinalis; Dose 15 g/ha): 5 (Level 5: growth control rate is above 85%) | Weeding effect in post-emergence stage, Eleusine indica (Eleusine indica; Dose 15 g/ha): 5 (Level 5: growth control rate is above 85%) | Weeding effect in post-emergence stage, Alopecurus japonicus (Alopecurus japonicus; Dose 15 g/ha): 5 (Level 5: growth control rate is above 85%)
